Holding throughout (experiment): in vitro susceptibility, MIC by mini broth dilution
Common to all, as to assay type: cell-based
(In general: Dilution methods test growth across graded concentrations, often in twofold steps.)

Experiment [1] concerns Staphylococcus aureus CVCC26003. The settings on record: strain CVCC26003. Put shortly:
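S. aureus CVCC26003 was revived and subcultured twice, 20 h each at 35° C, on solid medium, then diluted 1:200 in CAMHB liquid medium. Compounds received an 11-step two-fold DMSO dilution in parallel duplicate rows. MIC was read by mini broth dilution per NCCLS guidance.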

Experiment [2] concerns Actinobacillus pleuropneumoniae CVCC262. The settings on record: strain CVCC262. In a few lines: (§1)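 Broth microdilution MIC, NCCLS method: 11-point two-fold DMSO compound series, duplicate rows, well 12 as control. Inoculum from 20 h, 35° C plate cultures, diluted 1:200 in broth.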
Experiment [3] relates to Pasteurella multocida CVCC399. The settings on record: strain CVCC399. Put shortly: as §1
The subject of experiment [4] is Streptococcus equines CVCC556. The settings on record: strain CVCC556. Put shortly: as §1
In another experiment the test system is Haemophilus parasuis. In a few lines: as §1

SMILES strings stand for the structures.

`CC[C@H]1OC(=O)[C@H](C)[C@@H](O[C@H]2C[C@@](C)(OC)[C@](O)(CNc3cc(Cl)ccc3C)[C@H](C)O2)[C@H](C)[C@@H](O[C@@H]2O[C@H](C)C[C@H](N(C)C)[C@H]2O)[C@](C)(O)C[C@@H](C)NC[C@H](C)[C@@H](O)[C@]1(C)O` [syzx-94, (2R,3S,4R,5S,8R,10R,11R,12S,13S,14R)-13-[(2,6-dideoxy-3-C-methyl-3-O-methyl-4-C-[(5-chloro-o-methylphenyl-amino)-methyl]-α-L-ribopyranosyl)oxy]-2-ethyl-3,4,10-trihydroxy-3,5,8,10,12,14-hexamethyl-11-[[3,4,6-trideoxy-3-(dimethylamino)-β-D-xylo-hexopyranosy]oxy]-1-oxa-7-azacyclopentadecan-15-one]: the “MIC values, Staphylococcus aureus CVCC26003” value in experiment [1] came to 1 ug/mi. Moreover, the “MIC values, Actinobacillus pleuropneumoniae CVCC262” value in experiment [2] is 0.5 ug/mi. Besides, the “MIC values, Pasteurella multocida CVCC399” value in experiment [3] came to 2 ug/mi. Further, the “MIC values, Streptococcus equines CVCC556” value in experiment [4] amounted to 0.25 ug/mi. For the same compound, the “MIC values, Haemophilus parasuis” value against Haemophilus parasuis came out at 0.5 ug/mi.
For the compound `CCCN1C[C@H](C)[C@@H](O)[C@](C)(O)[C@@H](CC)OC(=O)[C@H](C)[C@@H](O[C@H]2C[C@@](C)(OC)[C@](O)(CNC(C)(C)C)[C@H](C)O2)[C@H](C)[C@@H](O[C@@H]2O[C@H](C)C[C@H](N(C)C)[C@H]2O)[C@](C)(O)C[C@H]1C` [syzx-1 14], in experiment [1], the “MIC values, Staphylococcus aureus CVCC26003” value amounted to 0.25 ug/mi. Further, the “MIC values, Actinobacillus pleuropneumoniae CVCC262” value in experiment [2] turned out to be 0.25 ug/mi. In addition, the “MIC values, Pasteurella multocida CVCC399” value in experiment [3] stood at 0.25 ug/mi. Besides, the “MIC values, Streptococcus equines CVCC556” value in experiment [4] stood at 0.25 ug/mi. Besides, the “MIC values, Haemophilus parasuis” value in the experiment on Haemophilus parasuis is 0.25 ug/mi.
Consider `CCCN1C[C@H](C)[C@@H](O)[C@](C)(O)[C@@H](CC)OC(=O)[C@H](C)[C@@H](O[C@H]2C[C@@](C)(OC)[C@](O)(CNc3ccc(C)cc3C)[C@H](C)O2)[C@H](C)[C@@H](O[C@@H]2O[C@H](C)C[C@H](N(C)C)[C@H]2O)[C@](C)(O)C[C@H]1C` [syzx-229], for which the “MIC values, Staphylococcus aureus CVCC26003” value in experiment [1] amounted to 4 ug/mi. For the same compound, the “MIC values, Actinobacillus pleuropneumoniae CVCC262” value in experiment [2] stood at 4 ug/mi. Also, in experiment [3], the “MIC values, Pasteurella multocida CVCC399” value amounted to 16 ug/mi. Further, in experiment [4], the “MIC values, Streptococcus equines CVCC556” value is 0.25 ug/mi. In the experiment on Haemophilus parasuis, the “MIC values, Haemophilus parasuis” value is on record as 4 ug/mi.
In the case of `CC[C@H]1OC(=O)[C@H](C)[C@@H](O[C@H]2C[C@@](C)(OC)[C@](O)(CNOCc3ccccc3)[C@H](C)O2)[C@H](C)[C@@H](O[C@@H]2O[C@H](C)C[C@H](N(C)C)[C@H]2O)[C@](C)(O)C[C@@H](C)NC[C@H](C)[C@@H](O)[C@]1(C)O` [syzx-82, (2R,3S,4R,5S,8R,10R,11R,12S,13S,14R)-13-[(2,6-dideoxy-3-C-methyl-3-O-methyl-4-C-[(benzyloxy-amino)-methyl]-α-L-ribopyranosyl)oxy]-2-ethyl-3,4,10-trihydroxy-3,5,8,10,12,14-hexamethyl-11-[[3,4,6-trideoxy-3-(dimethylamino)-β-D-xylo-hexopyranosy]oxy]-1-oxa-7-azacyclopentadecan-15-one], in experiment [1], the “MIC values, Staphylococcus aureus CVCC26003” value turned out to be 0.5 ug/mi. Further, the “MIC values, Actinobacillus pleuropneumoniae CVCC262” value in experiment [2] is 16 ug/mi. Besides, the “MIC values, Pasteurella multocida CVCC399” value in experiment [3] is on record as 1 ug/mi. The “MIC values, Streptococcus equines CVCC556” value in experiment [4] was “≦0.25 ug/mi”. For the same compound, in the experiment on Haemophilus parasuis, the “MIC values, Haemophilus parasuis” value was “≦0.25 ug/mi”.
For `CCCN1CC(C)C(O)C(C)(O)C(CC)OC(=O)C(C)C(OC2CC(C)(OC)C(O)(Cn3ccnn3)C(C)O2)C(C)C(OC2OC(C)CC(N(C)C)C2O)C(C)(O)CC1C` (stereo not drawn) [syzx-109], the “MIC values, Staphylococcus aureus CVCC26003” value in experiment [1] was determined as 0.25 ug/mi. Moreover, in experiment [2], the “MIC values, Actinobacillus pleuropneumoniae CVCC262” value was determined as 0.25 ug/mi. In addition, the “MIC values, Pasteurella multocida CVCC399” value in experiment [3] was 1 ug/mi. For the same compound, in experiment [4], the “MIC values, Streptococcus equines CVCC556” value came to 0.25 ug/mi. Besides, the “MIC values, Haemophilus parasuis” value against Haemophilus parasuis came to 0.25 ug/mi.
As to `CCCN1C[C@H](C)[C@@H](O)[C@](C)(O)[C@@H](CC)OC(=O)[C@H](C)[C@@H](O[C@H]2C[C@@](C)(OC)[C@](O)(CNCC3CCCCC3)[C@H](C)O2)[C@H](C)[C@@H](O[C@@H]2O[C@H](C)C[C@H](N(C)C)[C@H]2O)[C@](C)(O)C[C@H]1C` [syzx-167], the “MIC values, Staphylococcus aureus CVCC26003” value in experiment [1] turned out to be 2 ug/mi. Also, the “MIC values, Actinobacillus pleuropneumoniae CVCC262” value in experiment [2] is on record as 2 ug/mi. Moreover, in experiment [3], the “MIC values, Pasteurella multocida CVCC399” value is listed as 4 ug/mi. In addition, in experiment [4], the “MIC values, Streptococcus equines CVCC556” value was 0.25 ug/mi. In the experiment on Haemophilus parasuis, the “MIC values, Haemophilus parasuis” value is 2 ug/mi.
Take `CCC1OC(=O)C(C)C(OC2CC(C)(OC)C(O)(CNCCCNC3CCCCC3)C(C)O2)C(C)C(OC2OC(C)CC(N(C)C)C2O)C(C)(O)CC(C)NCC(C)C(O)C1(C)O` [syzx-60, (2R,3S,4R,5S,8R,10R,11R,12S,13S,14R)-13-[(2,6-dideoxy-3-C-methyl-3-O-methyl-4-C-[[(3-cyclohexylamino)propylamino]-methyl]-α-L-ribopyranosyl)oxy]-2-ethyl-3,4,10-trihydroxy-3,5,8,10,12,14-hexamethyl-11-[[3,4,6-trideoxy-3-(dimethylamino)-β-D-xylo-hexopyranosy]oxy]-1-oxa-7-azacyclopentadecan-15-one]: the “MIC values, Staphylococcus aureus CVCC26003” value in experiment [1] stood at 1 ug/mi. In experiment [2], the “MIC values, Actinobacillus pleuropneumoniae CVCC262” value is 8 ug/mi. Further, the “MIC values, Pasteurella multocida CVCC399” value in experiment [3] is 2 ug/mi. Moreover, the “MIC values, Streptococcus equines CVCC556” value in experiment [4] worked out at 2 ug/mi. Also, the “MIC values, Haemophilus parasuis” value with Haemophilus parasuis is reported as 1 ug/mi.
For `CCC(CO)NC[C@]1(O)[C@H](C)O[C@@H](O[C@H]2[C@H](C)[C@@H](O[C@@H]3O[C@H](C)C[C@H](N(C)C)[C@H]3O)[C@](C)(O)C[C@@H](C)NC[C@H](C)[C@@H](O)[C@](C)(O)[C@@H](CC)OC(=O)[C@@H]2C)C[C@@]1(C)OC` (stereo partly drawn) [syzx-51, (2R,3S,4R,5S,8R,10R,11R,12S,13S,14R)-13-[(2,6-dideoxy-3-C-methyl-3-O-methyl-4-C-[(1-hydroxymethyl-propylamino)-methyl]-α-L-ribopyranosyl)oxy]-2-ethyl-3,4,10-trihydroxy-3,5,8,10,12,14-hexamethyl-11-[[3,4,6-trideoxy-3-(dimethylamino)-β-D-xylo-hexopyranosy]oxy]-1-oxa-7-azacyclopentadecan-15-one], the “MIC values, Staphylococcus aureus CVCC26003” value in experiment [1] is listed as 0.5 ug/mi. The “MIC values, Actinobacillus pleuropneumoniae CVCC262” value in experiment [2] is recorded as 1 ug/mi. Also, the “MIC values, Pasteurella multocida CVCC399” value in experiment [3] stood at 0.5 ug/mi. Besides, in experiment [4], the “MIC values, Streptococcus equines CVCC556” value is reported as 1 ug/mi. Besides, in the experiment with Haemophilus parasuis, the “MIC values, Haemophilus parasuis” value amounted to 2 ug/mi.
Consider `CC[C@H]1OC(=O)[C@H](C)[C@@H](O[C@H]2C[C@@](C)(OC)[C@](O)(CNCCc3c[nH]c4ccccc34)[C@H](C)O2)[C@H](C)[C@@H](O[C@@H]2O[C@H](C)C[C@H](N(C)C)[C@H]2O)[C@](C)(O)C[C@@H](C)NC[C@H](C)[C@@H](O)[C@]1(C)O` [syzx-74, (2R,3S,4R,5S,8R,10R,11R,12S,13S,14R)-13-[(2,6-dideoxy-3-C-methyl-3-O-methyl-4-C-{[2-(1H-indol-3-yl)-ethylamino]-methyl}-α-L-ribopyranosyl)oxy]-2-ethyl-3,4,10-trihydroxy-3,5,8,10,12,14-hexamethyl-11-[[3,4,6-trideoxy-3-(dimethylamino)-β-D-xylo-hexopyranosy]oxy]-1-oxa-7-azacyclopentadecan-15-one], for which the “MIC values, Staphylococcus aureus CVCC26003” value in experiment [1] was 1 ug/mi. The “MIC values, Actinobacillus pleuropneumoniae CVCC262” value in experiment [2] was 1 ug/mi. Also, the “MIC values, Pasteurella multocida CVCC399” value in experiment [3] amounted to 1 ug/mi. Also, in experiment [4], the “MIC values, Streptococcus equines CVCC556” value was 0.5 ug/mi. The “MIC values, Haemophilus parasuis” value with Haemophilus parasuis came to 2 ug/mi.

The record behind these values is patent US9765105B2, “Macrolide compound” (Pulike Biological Engineering, Inc., priority 2013, dated 2017).
